This is an account of results in US9643980B2, “Benzoxazepin oxazolidinone compounds and methods of use” (Genentech, Inc., priority 2015, dated 2017).

Like-named read-outs stand apart in the source and are kept apart here.

Series [1] has as its target T1, PI3Kβ (Homo sapiens, UniProt P42338). The series can be described thus: PI3K binding assay (lipid kinase reaction, ADP-Glo), PI3K beta. The format is biochemical. Conditions: Table 2A; first value of cell (ADP-Glo, Example 901). The method, then: (§1) Reactions are carried out using the following conditions for each PI3K isoform as in Table 5.
(§2) All reactions are carried out at room temperature. […] The reaction is started by the addition of 2 μL ATP/MgCl2. The kinase reaction buffer contains 50 mM HEPES, 50 mM NaCl 3 mM MgCl2, 0.01% BSA, 1% DMSO, and enzyme and substrate concentrations as indicated in the above table. The reaction is stopped by the addition of 10 μL ADP-Glo reagent. Plates are read in a Perkin Elmer Envision system using luminescence mode. 10 point dose response curves are generated for each test compound. Ki values for each compound are determined using the Morrison Equation.
A general note: ADP-Glo first removes unused ATP, then detects ADP through luciferase.

Series [2] concerns P-PRAS40 SW48(E545K). As to the kind of experiment: Inhibition of P-PRAS40 in SW48 isogenic cells, PI3Kα mutant E545K. Conditions: for EC50: Homo sapiens, SW48, 24 hours of compound treatment, read-out: P-PRAS40 SW48(E545K) EC50. The class given is cell-based. The method, then:
(§3) All statistics were performed using KaleidaGraph Software (version 4.1.3). A Student t-Test was performed using unpaired data with equal variance to compare activity against mutant cells and wild-type cells. P<0.05 is considered to be significant.
(§4) The following assays are intended for determining the cellular potency and mutant selectivity of small molecule PI3Kα inhibitors. […] Mutant selectivity of PI3Kα inhibitors is determined by EC50 potency ratios in the WT vs. E545K cell lines and WT vs. H1047R cell lines.
(§5) The three cell lines (WT, E545K, and H1047R) are plated and assayed in parallel. The following day, test compounds are serially diluted in dimethyl sulfoxide (DMSO) and added to cells (final DMSO concentration 0.5%). […] Cell lysates are added to assay plates pre-coated with antibodies against phosphorylated PRAS40. Phosphorylated PRAS40 in samples are allowed to bind to the capture antibodies overnight at 4° C. The detection antibody (anti-total PRAS40, labeled with an electrochemiluminescent SULFO-TAG) is added to the bound lysate and incubated for 1 hour at room temperature. The MSD Read Buffer is added such that when a voltage is applied to the plate electrodes, the labels bound to the electrode surface emit light. The MSD Sector Instrument measures the intensity of the light, and quantitatively measures the amount of phosphor-PRAS40 in the sample. Percent inhibition of PRAS40 phosphorylation by varying concentrations of test compounds is calculated relative to untreated controls. EC50 values are calculated using the 4 parameter logistic nonlinear regression dose-response model.

In series [3] the test system is P-PRAS40 SW48(H1047R). The series can be described thus: Inhibition of P-PRAS40 in SW48 isogenic cells, PI3Kα mutant H1047R. Conditions: for EC50: Homo sapiens, SW48, 24 hours of compound treatment, read-out: P-PRAS40 SW48(H1047R) EC50. The format is cell-based. The method, then: as §3, §4, §5
In series [4] the test system is locally advanced or metastatic solid tumors. Conditions: phase Ia, single agent; all responses in patients with PIK3CA mutant tumors (Juric D. et al. AACR 2013); cited from earlier work.
In series [5] the test system is KPL4 cells (PI3Kα mutant H1047R). As to the kind of experiment: In vitro cell viability assay (Cell Titer-Glo), KPL4.
Procedure: (§6) Cells were seeded (1,500 per well) in 384-well plates for 16 h. On day 2, nine serial 1:3 compound dilutions were made in DMSO in a 96-well plate. The compounds were then further diluted into growth media using a Rapidplate robot (Zymark Corp.). The diluted compounds were then added to quadruplicate wells in the 384-well cell plates and incubated at 37° C. and 5% CO2. After 4 d, relative numbers of viable cells were measured by luminescence using Cell Titer-Glo (Promega) according to the manufacturer's instructions and read on a Wallac Multilabel Reader (Perkin-Elmer). EC50 values were calculated using Prism 6.0 software (GraphPad).
The test system of series [6] is MCF7 cells (PI3Kα mutant E545K). As to the kind of experiment: In vitro cell viability assay (Cell Titer-Glo), MCF7. (ATP-based viability assays read luminescence as a measure of living cells.)
Procedure: as §6
Series [7] deals with HCC1954 cells (PI3Kα mutant H1047R). As to the kind of experiment: In vitro cell viability assay (Cell Titer-Glo), HCC1954.
Procedure: as §6
In series [8] the test system is P-PRAS40 SW48(parental). The series can be described thus: Inhibition of P-PRAS40 in SW48 isogenic cells, PI3Kα wild-type (parental). Conditions: Homo sapiens, SW48, 24 h.
Procedure: The three cell lines (WT, E545K, and H1047R) are plated and assayed in parallel. The following day, test compounds are serially diluted in dimethyl sulfoxide (DMSO) and added to cells (final DMSO concentration 0.5%). Cells are then incubated for 24 hours at 37° C. and 5% CO2. […] Cell lysates are added to assay plates pre-coated with antibodies against phosphorylated PRAS40. Phosphorylated PRAS40 in samples are allowed to bind to the capture antibodies overnight at 4° C. The detection antibody (anti-total PRAS40, labeled with an electrochemiluminescent SULFO-TAG) is added to the bound lysate and incubated for 1 hour at room temperature. The MSD Read Buffer is added such that when a voltage is applied to the plate electrodes, the labels bound to the electrode surface emit light. The MSD Sector Instrument measures the intensity of the light, and quantitatively measures the amount of phosphor-PRAS40 in the sample. Percent inhibition of PRAS40 phosphorylation by varying concentrations of test compounds is calculated relative to untreated controls. EC50 values are calculated using the 4 parameter logistic nonlinear regression dose-response model.
Series [9] has as its target T1, PI3Kβ. The series can be described thus: Fluorescence polarization (FP) Ki, methods of Example 901 of U.S. Pat. No. 8,242,104, PI3K beta. To be noted: read-out: PI3Kβ FP Ki; Table 2A; second value of cell after slash (FP). For orientation: In fluorescence polarisation assays a small probe gives low polarisation when free and higher when bound to something large.
Series [10] has as its target T2, PI3Kγ (Homo sapiens, UniProt P48736). The series can be described thus: Fluorescence polarization (FP) Ki, methods of Example 901 of U.S. Pat. No. 8,242,104, PI3K gamma. Conditions: read-out: PI3Kγ FP Ki; Table 2A; second value of cell after slash (FP).
For series [11], the target named is PI3Kα (Homo sapiens, UniProt P42336). As to the kind of experiment: PI3K binding assay (lipid kinase reaction, ADP-Glo), PI3K alpha. The class given is biochemical. Conditions: Table 2A. As for the experimental part: as §1, §2
For series [12], the target named is PI3Kδ (Homo sapiens, UniProt O00329). The series can be described thus: PI3K binding assay (lipid kinase reaction, ADP-Glo), PI3K delta. The format is biochemical. To be noted: Table 2A; first value of cell (ADP-Glo, Example 901). The method, then:
as §1, §2

For series [13], the target named is T2, PI3Kγ. As to the kind of experiment: PI3K binding assay (lipid kinase reaction, ADP-Glo), PI3K gamma. The format is biochemical. To be noted: Table 2A; first value of cell (ADP-Glo, Example 901). As for the experimental part: as §1, §2
For series [14], the system named is KPL4 breast cancer cell line (PI3Kα mutant H1047R) tumors. Conditions: KPL4 xenograft in SCID mice, daily PO (oral) dosing. The method, then:
(70-72° F.) and 40-60% humidity.
Tumor weight may be estimated with the assumption that 1 mg is equivalent to 1 mm^3 of tumor volume.

[15] abbreviates: Table 3A, EC50 potency ratio, p value (Student t-Test) given.

T1 sequence (P42338 whole entry, canonical isoform): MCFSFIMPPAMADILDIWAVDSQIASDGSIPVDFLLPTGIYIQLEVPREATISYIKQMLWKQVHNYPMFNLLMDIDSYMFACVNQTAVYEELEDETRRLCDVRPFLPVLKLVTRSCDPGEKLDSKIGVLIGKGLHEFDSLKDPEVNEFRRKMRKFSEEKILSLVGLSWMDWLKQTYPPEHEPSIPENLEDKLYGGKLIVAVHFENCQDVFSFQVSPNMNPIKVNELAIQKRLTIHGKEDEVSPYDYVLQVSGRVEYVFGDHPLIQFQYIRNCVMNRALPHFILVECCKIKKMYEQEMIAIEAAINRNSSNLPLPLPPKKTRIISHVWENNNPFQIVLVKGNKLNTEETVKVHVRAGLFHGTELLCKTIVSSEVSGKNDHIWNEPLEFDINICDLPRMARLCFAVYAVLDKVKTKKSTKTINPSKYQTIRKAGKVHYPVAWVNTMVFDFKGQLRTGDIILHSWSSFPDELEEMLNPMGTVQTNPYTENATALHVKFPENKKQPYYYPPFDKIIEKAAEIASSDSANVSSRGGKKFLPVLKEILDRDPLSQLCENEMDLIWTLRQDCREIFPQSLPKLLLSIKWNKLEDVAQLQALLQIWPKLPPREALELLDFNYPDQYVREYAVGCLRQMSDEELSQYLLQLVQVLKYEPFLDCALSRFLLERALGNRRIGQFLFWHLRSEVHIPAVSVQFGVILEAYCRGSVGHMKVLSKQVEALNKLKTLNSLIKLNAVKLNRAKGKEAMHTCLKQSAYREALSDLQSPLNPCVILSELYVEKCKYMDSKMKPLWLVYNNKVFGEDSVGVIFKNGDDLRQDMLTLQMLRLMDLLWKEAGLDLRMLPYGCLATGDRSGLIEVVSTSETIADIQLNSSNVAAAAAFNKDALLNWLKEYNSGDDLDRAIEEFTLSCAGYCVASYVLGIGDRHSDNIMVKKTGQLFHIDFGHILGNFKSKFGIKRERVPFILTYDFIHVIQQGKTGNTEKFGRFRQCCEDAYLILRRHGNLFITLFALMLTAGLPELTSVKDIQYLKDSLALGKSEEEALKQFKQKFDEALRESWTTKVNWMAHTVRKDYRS
T1 sequence (P27986 whole entry partner, canonical isoform): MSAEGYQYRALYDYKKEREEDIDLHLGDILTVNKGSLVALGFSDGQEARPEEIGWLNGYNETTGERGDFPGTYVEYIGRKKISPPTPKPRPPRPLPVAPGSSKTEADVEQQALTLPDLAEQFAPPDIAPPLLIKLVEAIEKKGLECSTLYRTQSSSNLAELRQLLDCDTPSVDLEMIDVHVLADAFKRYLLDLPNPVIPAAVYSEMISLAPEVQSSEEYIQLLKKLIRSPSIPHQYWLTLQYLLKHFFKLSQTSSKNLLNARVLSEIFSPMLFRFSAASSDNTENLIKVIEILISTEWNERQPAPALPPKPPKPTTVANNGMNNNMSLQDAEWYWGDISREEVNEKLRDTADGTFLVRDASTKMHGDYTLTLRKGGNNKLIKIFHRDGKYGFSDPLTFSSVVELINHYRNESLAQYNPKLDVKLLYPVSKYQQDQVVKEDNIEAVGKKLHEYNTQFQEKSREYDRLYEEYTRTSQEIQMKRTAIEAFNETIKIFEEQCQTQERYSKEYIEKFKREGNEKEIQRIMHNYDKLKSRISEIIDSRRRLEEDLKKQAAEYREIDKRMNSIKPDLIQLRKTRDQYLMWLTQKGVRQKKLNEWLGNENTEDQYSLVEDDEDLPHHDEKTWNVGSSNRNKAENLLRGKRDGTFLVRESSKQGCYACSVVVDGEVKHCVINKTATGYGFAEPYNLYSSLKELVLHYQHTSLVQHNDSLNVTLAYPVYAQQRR
Sequence of PI3Kα (P42336 whole entry): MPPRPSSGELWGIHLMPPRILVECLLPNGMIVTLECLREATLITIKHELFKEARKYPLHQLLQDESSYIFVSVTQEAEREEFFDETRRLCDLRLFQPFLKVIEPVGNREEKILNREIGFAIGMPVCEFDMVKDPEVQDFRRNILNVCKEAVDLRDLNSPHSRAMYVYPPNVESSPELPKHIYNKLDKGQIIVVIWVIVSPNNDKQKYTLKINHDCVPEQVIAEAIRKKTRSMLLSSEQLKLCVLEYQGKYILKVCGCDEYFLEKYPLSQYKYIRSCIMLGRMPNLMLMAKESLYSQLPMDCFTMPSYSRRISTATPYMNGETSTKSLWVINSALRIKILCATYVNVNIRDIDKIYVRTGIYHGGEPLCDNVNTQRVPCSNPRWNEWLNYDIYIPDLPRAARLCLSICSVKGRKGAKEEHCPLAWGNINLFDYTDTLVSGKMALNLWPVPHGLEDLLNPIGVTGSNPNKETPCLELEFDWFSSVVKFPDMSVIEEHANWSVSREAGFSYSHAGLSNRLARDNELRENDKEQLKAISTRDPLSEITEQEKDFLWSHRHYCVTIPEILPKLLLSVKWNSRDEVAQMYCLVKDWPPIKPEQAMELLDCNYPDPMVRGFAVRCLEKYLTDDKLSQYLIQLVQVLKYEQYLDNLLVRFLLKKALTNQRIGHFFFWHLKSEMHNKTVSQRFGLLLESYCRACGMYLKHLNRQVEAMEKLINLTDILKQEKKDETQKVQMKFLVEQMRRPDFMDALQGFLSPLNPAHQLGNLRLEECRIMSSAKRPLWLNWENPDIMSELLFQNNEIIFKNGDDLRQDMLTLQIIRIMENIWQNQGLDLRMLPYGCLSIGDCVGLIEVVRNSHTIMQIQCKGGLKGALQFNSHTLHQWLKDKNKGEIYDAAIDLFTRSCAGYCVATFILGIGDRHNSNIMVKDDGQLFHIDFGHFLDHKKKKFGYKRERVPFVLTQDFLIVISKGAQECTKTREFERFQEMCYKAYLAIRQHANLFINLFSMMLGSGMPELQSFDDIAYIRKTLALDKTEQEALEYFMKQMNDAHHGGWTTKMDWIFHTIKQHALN
Sequence of PI3Kα (P27986 whole entry partner): as the sequence (P27986 whole entry partner, canonical isoform) above
T2 sequence (P48736 whole entry): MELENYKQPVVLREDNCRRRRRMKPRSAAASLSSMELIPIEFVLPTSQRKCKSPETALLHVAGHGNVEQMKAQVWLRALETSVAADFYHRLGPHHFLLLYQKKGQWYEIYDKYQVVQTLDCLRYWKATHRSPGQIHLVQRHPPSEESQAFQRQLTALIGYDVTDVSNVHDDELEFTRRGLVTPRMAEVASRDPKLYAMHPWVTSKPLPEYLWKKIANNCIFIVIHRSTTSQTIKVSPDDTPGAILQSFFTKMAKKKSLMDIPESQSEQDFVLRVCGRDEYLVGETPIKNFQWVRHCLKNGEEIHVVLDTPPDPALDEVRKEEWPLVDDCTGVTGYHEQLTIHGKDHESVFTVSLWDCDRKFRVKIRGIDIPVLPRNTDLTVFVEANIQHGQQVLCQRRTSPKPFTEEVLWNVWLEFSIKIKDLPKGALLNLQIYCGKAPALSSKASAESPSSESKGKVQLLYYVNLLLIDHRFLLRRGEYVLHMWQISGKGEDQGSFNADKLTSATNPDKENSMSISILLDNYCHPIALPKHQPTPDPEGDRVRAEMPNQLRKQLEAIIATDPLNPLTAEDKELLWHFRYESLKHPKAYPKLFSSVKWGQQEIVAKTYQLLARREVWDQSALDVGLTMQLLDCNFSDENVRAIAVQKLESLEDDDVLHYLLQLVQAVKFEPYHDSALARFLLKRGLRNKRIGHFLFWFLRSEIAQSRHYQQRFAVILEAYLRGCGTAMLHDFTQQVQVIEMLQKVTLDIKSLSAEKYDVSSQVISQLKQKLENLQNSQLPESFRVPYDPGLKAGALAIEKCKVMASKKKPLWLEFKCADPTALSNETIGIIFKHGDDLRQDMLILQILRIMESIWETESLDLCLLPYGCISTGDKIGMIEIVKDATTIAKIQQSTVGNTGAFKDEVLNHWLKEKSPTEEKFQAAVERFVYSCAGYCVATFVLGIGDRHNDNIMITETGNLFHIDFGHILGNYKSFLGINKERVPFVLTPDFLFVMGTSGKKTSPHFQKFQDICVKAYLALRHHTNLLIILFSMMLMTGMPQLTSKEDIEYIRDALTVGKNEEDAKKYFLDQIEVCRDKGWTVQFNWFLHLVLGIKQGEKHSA
Sequence of PI3Kδ (O00329 whole entry): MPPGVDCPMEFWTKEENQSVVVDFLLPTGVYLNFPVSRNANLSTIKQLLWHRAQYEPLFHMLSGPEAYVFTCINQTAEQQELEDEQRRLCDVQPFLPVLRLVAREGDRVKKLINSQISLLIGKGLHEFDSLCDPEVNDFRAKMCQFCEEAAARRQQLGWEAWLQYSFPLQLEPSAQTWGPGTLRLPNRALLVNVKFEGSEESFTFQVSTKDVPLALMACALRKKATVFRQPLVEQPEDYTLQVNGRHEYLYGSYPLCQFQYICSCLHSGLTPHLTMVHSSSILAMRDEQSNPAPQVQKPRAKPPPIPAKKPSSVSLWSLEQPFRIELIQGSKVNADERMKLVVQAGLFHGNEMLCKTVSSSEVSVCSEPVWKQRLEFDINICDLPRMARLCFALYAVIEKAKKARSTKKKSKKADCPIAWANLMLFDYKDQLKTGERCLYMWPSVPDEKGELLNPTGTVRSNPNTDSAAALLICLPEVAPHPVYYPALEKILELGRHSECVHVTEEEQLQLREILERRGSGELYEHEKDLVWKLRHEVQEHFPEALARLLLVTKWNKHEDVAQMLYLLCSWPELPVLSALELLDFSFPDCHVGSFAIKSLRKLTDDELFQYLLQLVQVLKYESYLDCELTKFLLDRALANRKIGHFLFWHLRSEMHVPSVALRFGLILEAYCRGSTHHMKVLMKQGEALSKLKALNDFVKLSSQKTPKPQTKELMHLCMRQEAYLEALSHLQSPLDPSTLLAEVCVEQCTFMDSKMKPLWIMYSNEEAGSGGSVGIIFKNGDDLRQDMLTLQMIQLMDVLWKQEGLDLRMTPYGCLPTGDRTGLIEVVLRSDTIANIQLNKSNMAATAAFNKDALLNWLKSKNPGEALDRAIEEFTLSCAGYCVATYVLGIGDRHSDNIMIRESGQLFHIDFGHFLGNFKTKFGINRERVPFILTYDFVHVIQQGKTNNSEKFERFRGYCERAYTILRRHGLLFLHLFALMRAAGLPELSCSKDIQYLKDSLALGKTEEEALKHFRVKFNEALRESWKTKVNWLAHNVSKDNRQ
Sequence of PI3Kδ (P27986 whole entry partner): as the sequence (P27986 whole entry partner, canonical isoform) above

By Ki is commonly meant a measure of affinity in units of concentration, obtained from inhibition or displacement. The term EC50 denotes the concentration that produces a half-maximal response. `Cc1nc(-c2cn3c(n2)-c2ccc(-c4cnn(C(C)(C)C(N)=O)c4)cc2OCC3)n(C(C)C)n1` [taselisib, 2-(4-(2-(1-isopropyl-3-methyl-1H-1,2,4-triazol-5-yl)-5,6-dihydrobenzo[f]imidazo[1,2-d][1,4]oxazepin-9-yl)-1H-pyrazol-1-yl)-2-methylpropanamide, reference compound]: the Ki turned out to be 53 nM in series [1], 9.1 nM in [9] and 0.97 nM in series [10]. Besides, the EC50 in series [2] (Table 3B comparator compounds) is 3.4 nM; in series [3] (Table 3B comparator compounds), 4 nM; in [5] (read-out: KPL4 antiproliferative EC50, 4 d incubation, Cell Titer-Glo), 0.02 µM; in [6] (read-out: MCF7 antiproliferative EC50, 4 d incubation, Cell Titer-Glo), 0.02 µM; in series [7] (read-out: HCC1954 antiproliferative EC50, 4 d incubation, Cell Titer-Glo), 0.04 µM; in series [8] (read-out: P-PRAS40 SW48(parental) EC50 (μM)), 0.0079 µM. Moreover, in series [4], the “Partial responses (PRs) in enrolled patients” value is recorded as 6/34.
On to `C[C@@H]1COC(=O)N1c1cn2c(n1)-c1ccc(N3CCC[C@H]3C(N)=O)cc1OCC2` [Compound 102, (S)-1-(2-((R)-4-Methyl-2-oxooxazolidin-3-yl)-5,6-dihydrobenzo[f]imidazo[1,2-d][1,4]oxazepin-9-yl)pyrrolidine-2-carboxamide], for which the Ki in [11] (first value of cell (ADP-Glo, Example 901), read-out: PI3Kα Ki) came out at 0.56 nM; in series [1] it was 418 nM; in series [12] it was 13.3 nM; in series [13] it was 205 nM. The “Selectivity for PI3Kα vs. PI3K-β” value in series [11] (selectivity ratio (fold)) amounted to 745. For the same compound, the “Selectivity for PI3Kα vs. PI3Kγ” value in series [11] (selectivity ratio (fold)) is on record as 366. For the same compound, the “Selectivity for PI3Kα vs. PI3Kδ” value in [11] (selectivity ratio (fold)) came out at 24. For the same compound, the 50% effective concentration (EC50) in series [2] (Table 3A, geometric mean) stood at 16.6 nM; in series [3] (Table 3A, geometric mean), 16.4 nM; in series [5] (KPL4, 96 h, read-out: KPL4 antiproliferative EC50 (μM)) it was 0.05 µM; in series [6] (Homo sapiens, MCF7, 96 h, read-out: MCF7 antiproliferative EC50 (μM)) it was 0.1 µM; in series [7] (Homo sapiens, HCC1954, 96 h, read-out: HCC1954 antiproliferative EC50 (μM)), 0.48 µM; in series [8] (read-out: P-PRAS40 SW48(parental) EC50 (nM)), 0.0392 µM. Besides, the “Fold Selectivity for SW48(E545K) vs. SW48(parental)” value in [2] (setting [15]) is 2.4 (p < 0.001). In series [3] (setting [15]), the “Fold Selectivity for SW48(H1047R) vs. SW48(parental)” value is recorded as 2.4 (p < 0.001). Further, in series [14] (all doses), the “Tolerability / treatment-related body weight loss” value was “well tolerated, with no treatment-related body weight loss observed”. The “Inhibition of KPL4 tumor growth in vivo” value in [14] (FIGS. 2A and 2B) is “strongly inhibit the growth of KPL4 tumors in vivo in a dose-dependent manner”.
